Data from the supplement of paper PMC10307832.

Experiments:
Test in all cases: relative viability (nuclei count vs DMSO), 5 days (fraction); higher = more cells survive
[1] = system: 201T
Summary of the method: (§1)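 Values are medians from duplicate plates. Each reflects relative viability, defined as the nuclei count of treated wells over that of vehicle wells. Lung cancer cell lines in 1536-well plates were pin-tool dosed one day after seeding with one drug alone or with a fixed anchor-drug dose plus five library-drug doses (not always all listed) in √10 steps, then fixed, stained and imaged at 4× after 5 days.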

[2] = system: BEN
Summary of the method: as §1

[3] = system: CAL-12T
Summary of the method: as §1

[4] = system: HCC-827
Summary of the method: as §1

[5] = system: LCLC-103H
Summary of the method: as §1

[6] = system: LCLC-97TM1
Summary of the method: as §1

[7] = system: LXF-289
Summary of the method: as §1

[8] = system: NCI-H1395
Summary of the method: as §1

[9] = system: NCI-H1437
Summary of the method: as §1

[10] = system: NCI-H1650
Summary of the method: as §1

[11] = system: NCI-H1793
Summary of the method: as §1

[12] = system: NCI-H1944
Summary of the method: as §1

[13] = system: NCI-H2087
Summary of the method: as §1

[14] = system: NCI-H2228
Summary of the method: as §1

[15] = system: NCI-H2405
Summary of the method: as §1

[16] = system: NCI-H3122
Summary of the method: as §1

[17] = system: NCI-H322M
Summary of the method: as §1

[18] = system: NCI-H647
Summary of the method: as §1

[19] = system: NCI-H727
Summary of the method: as §1

[20] = system: RERF-LC-KJ
Summary of the method: as §1

[21] = system: SK-LU-1
Summary of the method: as §1

Compound: O=c1cc(-c2cccc3c2Sc2ccccc2S3)oc(N2CCOCC2)c1 + COc1cc2c(Oc3ccc(NC(=O)C4(C(=O)Nc5ccc(F)cc5)CC4)cc3F)ccnc2cc1OCCCN1CCOCC1 [Foretinib] (partner 0.25 µM)
- relative viability ([1]; first compound 0.08 µM): 1.14
- relative viability ([1]; first compound 0.253 µM): 1.08
- relative viability ([1]; first compound 0.8 µM): 0.787
- relative viability ([1]; first compound 2.53 µM): 1.06
- relative viability ([1]; first compound 8 µM): 1.01
- relative viability ([2]; first compound 0.08 µM): 0.485
- relative viability ([2]; first compound 0.253 µM): 0.662
- relative viability ([2]; first compound 0.8 µM): 0.674
- relative viability ([2]; first compound 2.53 µM): 0.578
- relative viability ([2]; first compound 8 µM): 0.97
- relative viability ([3]; first compound 0.08 µM): 0.951
- relative viability ([3]; first compound 0.253 µM): 1.15
- relative viability ([3]; first compound 0.8 µM): 1.19
- relative viability ([3]; first compound 2.53 µM): 1.14
- relative viability ([3]; first compound 8 µM): 1
- relative viability ([4]; first compound 0.08 µM): 0.94
- relative viability ([4]; first compound 0.253 µM): 1.12
- relative viability ([4]; first compound 0.8 µM): 1.07
- relative viability ([4]; first compound 2.53 µM): 0.863
- relative viability ([4]; first compound 8 µM): 1.02
- relative viability ([5]; first compound 0.08 µM): 0.721
- relative viability ([5]; first compound 0.253 µM): 0.831
- relative viability ([5]; first compound 0.8 µM): 0.794
- relative viability ([5]; first compound 2.53 µM): 0.71
- relative viability ([5]; first compound 8 µM): 0.712
- relative viability ([6]; first compound 0.08 µM): 0.961
- relative viability ([6]; first compound 0.253 µM): 1.02
- relative viability ([6]; first compound 0.8 µM): 0.977
- relative viability ([6]; first compound 2.53 µM): 0.887
- relative viability ([6]; first compound 8 µM): 0.909
- relative viability ([7]; first compound 0.08 µM): 0.935
- relative viability ([7]; first compound 0.253 µM): 1.12
- relative viability ([7]; first compound 0.8 µM): 0.974
- relative viability ([7]; first compound 2.53 µM): 1.02
- relative viability ([7]; first compound 8 µM): 1.1
- relative viability ([8]; first compound 0.08 µM): 0.934
- relative viability ([8]; first compound 0.253 µM): 0.887
- relative viability ([8]; first compound 0.8 µM): 1.07
- relative viability ([8]; first compound 2.53 µM): 0.938
- relative viability ([8]; first compound 8 µM): 1.09
- relative viability ([9]; first compound 0.08 µM): 1.27
- relative viability ([9]; first compound 0.253 µM): 1.41
- relative viability ([9]; first compound 0.8 µM): 1.32
- relative viability ([9]; first compound 2.53 µM): 1.23
- relative viability ([9]; first compound 8 µM): 1.33
- relative viability ([10]; first compound 0.08 µM): 1.35
- relative viability ([10]; first compound 0.253 µM): 1.04
- relative viability ([10]; first compound 0.8 µM): 0.998
- relative viability ([10]; first compound 2.53 µM): 0.902
- relative viability ([10]; first compound 8 µM): 1.19
- relative viability ([11]; first compound 0.08 µM): 0.681
- relative viability ([11]; first compound 0.253 µM): 0.826
- relative viability ([11]; first compound 0.8 µM): 0.562
- relative viability ([11]; first compound 2.53 µM): 0.595
- relative viability ([11]; first compound 8 µM): 0.588
- relative viability ([12]; first compound 0.08 µM): 0.832
- relative viability ([12]; first compound 0.253 µM): 0.853
- relative viability ([12]; first compound 0.8 µM): 0.899
- relative viability ([12]; first compound 2.53 µM): 0.825
- relative viability ([12]; first compound 8 µM): 0.951
- relative viability ([13]; first compound 0.08 µM): 0.976
- relative viability ([13]; first compound 0.253 µM): 1.13
- relative viability ([13]; first compound 0.8 µM): 1.3
- relative viability ([13]; first compound 2.53 µM): 1.23
- relative viability ([13]; first compound 8 µM): 1.19
- relative viability ([14]; first compound 0.08 µM): 0.753
- relative viability ([14]; first compound 0.253 µM): 0.907
- relative viability ([14]; first compound 0.8 µM): 0.966
- relative viability ([14]; first compound 2.53 µM): 0.813
- relative viability ([14]; first compound 8 µM): 1.11
- relative viability ([15]; first compound 0.08 µM): 0.998
- relative viability ([15]; first compound 0.253 µM): 1.09
- relative viability ([15]; first compound 0.8 µM): 0.975
- relative viability ([15]; first compound 2.53 µM): 0.938
- relative viability ([15]; first compound 8 µM): 1.04
- relative viability ([16]; first compound 0.08 µM): 0.789
- relative viability ([16]; first compound 0.253 µM): 1.01
- relative viability ([16]; first compound 0.8 µM): 1.02
- relative viability ([16]; first compound 2.53 µM): 0.986
- relative viability ([16]; first compound 8 µM): 1.01
- relative viability ([17]; first compound 0.08 µM): 0.896
- relative viability ([17]; first compound 0.253 µM): 1
- relative viability ([17]; first compound 0.8 µM): 0.885
- relative viability ([17]; first compound 2.53 µM): 0.858
- relative viability ([17]; first compound 8 µM): 0.972
- relative viability ([18]; first compound 0.08 µM): 1.15
- relative viability ([18]; first compound 0.253 µM): 1.35
- relative viability ([18]; first compound 0.8 µM): 1.25
- relative viability ([18]; first compound 2.53 µM): 1.21
- relative viability ([18]; first compound 8 µM): 1.29
- relative viability ([19]; first compound 0.08 µM): 0.552
- relative viability ([19]; first compound 0.253 µM): 0.867
- relative viability ([19]; first compound 0.8 µM): 0.904
- relative viability ([19]; first compound 2.53 µM): 0.842
- relative viability ([19]; first compound 8 µM): 1.21
- relative viability ([20]; first compound 0.08 µM): 0.836
- relative viability ([20]; first compound 0.253 µM): 0.952
- relative viability ([20]; first compound 0.8 µM): 0.745
- relative viability ([20]; first compound 2.53 µM): 0.995
- relative viability ([20]; first compound 8 µM): 0.792
- relative viability ([21]; first compound 0.08 µM): 0.787
- relative viability ([21]; first compound 0.253 µM): 1.05
- relative viability ([21]; first compound 0.8 µM): 0.906
- relative viability ([21]; first compound 2.53 µM): 0.842
- relative viability ([21]; first compound 8 µM): 0.831
